Data on 4 compounds can be found in patent US12473250B2, “Molecular design of new antibiotics and antibiotic adjuvants against MCR strains” (priority 2019, dated 2025).

The test system of assay [1] is ACBA multi-drug resistant strains. The assay is described as follows: MIC against multi-drug resistant strains (Table 5). The following applies: Acinetobacter baumannii. It counts as cell-based, Acinetobacter baumannii. As to the method:
(§1) MIC experiments of the antimicrobial agents were determined by a modified broth microdilution method in accordance with the Clinical and Laboratory Standards Institute (CLSI) guidelines using 96 well culture plates. In brief, serial dilutions of all plates were prepared at different concentrations (μg). The inoculum suspension was prepared by adding isolated colonies from a 18-20 hours on TSA plate into phosphate buffer (0.31 mM, pH 7.2) or in water for injection (BBraun) and adjusting the suspension to a turbidity equivalent to 0.5 McFarland Standard. Each well contained a final bacterial concentration of approximately 5×10^5 colony forming units (CFU)/mL. The plate was covered and incubated at 35° C. for 24 hours. […] For the microdilution plates, turbidity in wells can be measured at OD600 using TECAN infinite M200Pro. MIC was determined as […] concentration that gives a 99 percent inhibition.

For assay [2], the system named is KLPN multi-drug resistant strains. The experiment in a line: MIC against multi-drug resistant strains (Table 5). The following applies: Klebsiella pneumoniae, alone, read-out: MIC. It counts as cell-based, Klebsiella pneumonia. The method, then: as §1
Assay [3] relates to ENT CLOACAE multi-drug resistant strains. The assay is described as follows: MIC against multi-drug resistant strains (Table 5). It counts as cell-based, E. cloacae. The following applies: Enterobacter cloacae, alone, read-out: MIC. The method, then: as §1
For the next assay, the system named is various pathogens. The assay is described as follows: organism not typed. The assay is classed as cell-based. As to the method:
The MICs of the individual drugs and LC compound in combinations were determined using the broth microdilution technique as recommended by the CLSI whereby the two anti-microbial agents were added in an equal amount. (e.g.: 50 μL of Colistin: 50 μL of LC compounds). Diluted media containing compounds and antibiotics will be serially diluted 2-fold, and LC compounds and antibiotics alone or in combination will be assayed at fixed synergy concentration. In all cases, the lowest concentration at which no visible growth occurred was be recorded to be the MIC value of individual and combined antibacterial agents. The results were obtained after 24 hours of incubation.
Using the combination of LC100 and colistin, the activity of a broad range of strains was further tested (Table 7).

For assay [4], the system named is MCR positive E. coli Clinical isolate 6083655967. The assay is classed as in vivo. The following applies: neutropenic mice, i.p. 1 hour after infection, 6 hours after treatment; colistin 10 mg/kg, LC100 50 mg/kg, meropenem 100 mg/kg, combination 50 + 10 mg/kg. As to the method: FIG. 21 refers to graphs showing the efficacy testing of combination of LC100 and Colistin in neutropenic mouse thigh infection model infected with MCR positive E. coli Clinical isolate 6083655967. Starting inoculum was 1.87×10^6, N=3. “Combination” refers to Colistin 10 mg/kg+LC100 50 mg/kg. Each treatment was done intraperitoneally 1 hour after infection. 6 hours after treatment, mouse thigh tissues were homogenized for viable CFU.
The combination of colistin and antimicrobial peptide (LC100) was tested against E. coli clinical isolate MCR-positive strain 6083655967 in a neutropenic mouse thigh infection model. C57BL/6 mice were rendered neutropenic by cyclophosphamide, dosed at 150 and 100 mg kg-1 delivered on days −4 and −1 prior to infection. Bacteria were suspended in sterile saline and adjusted to a concentration of ˜1.876×10^6 CFU per infection site (100 micro-liters) and injected intramuscularly into the right thigh of five mice per treatment group. At 1 h post infection, mice received colistin ([…], i.p. n=5), LC100 (50 mg kg-1, i.p. n=5), untreated (n=5), or the combination (n=5). Mice were euthanized 6 h after infection; thigh tissue was aseptically collected, homogenized, serially diluted in PBS and plated onto solid TSA supplemented plates. Plates were incubated overnight at 37° C. and colonies were quantified to determine bacterial load.
To evaluate the in vivo efficacy of the combination of LC100 and colistin, a neutropenic mouse thigh infection model was used. 30 mice were classed into 5 groups: control, colistin at 10 mg/kg, LC100 at 50 mg/kg, meropenem at 100 mg/kg and combination of 50 mg/kg of LC100 and 10 mg/kg of colistin. Each treatment was administered intraperitoneally 1 hour after infection. The starting inoculum was 1.87×10^6, and 6 hours after treatment, mouse thigh tissues were homogenized for viable CFU. […] As neutropenic mice were used in the study, the 1.2 log reduction in bacterial burden is due to the combination of LC100 and colistin rather than the immune system of the mouse.

For assay [5], the system named is PAE strains (CRE strains, colistin sensitive). The assay is described as follows: MIC of polymyxin B or colistin alone (Table 4). It counts as cell-based, P. aeruginosa. More on the design: unit: μg/mL. The method, then:
as §1

Assay [6] has as its system EC strains (CRE strains, colistin sensitive). The experiment in a line: MIC of polymyxin B or colistin alone (Table 4). More on the design: unit: μg/mL. It counts as cell-based, E. coli. As to the method:
as §1

The mark [7] stands for this setting: ATCC19606, strain ACBA ATCC 19606, alone, read-out: MIC.
Where [8] appears, read: strain ACBA 1012, alone, read-out: MIC.
Where [9] appears, read: strain ACBA 43357, alone, read-out: MIC.
[10] abbreviates: Escherichia coli, 6083655967 [MCR 1+, E. Coli].
The mark [11] stands for this setting: Escherichia coli, 6093560257 [MCR 1+, E. Coli, NDM-1].
Where [12] appears, read: Escherichia coli, 6123520276 [MCR 1+, E. Coli].
Setting [13] is: Escherichia coli, 7023436560 [MCR 1+, E. Coli].
[14] abbreviates: Escherichia coli, 7023444207 [MCR 1+, E. Coli].
Where [15] appears, read: Escherichia coli, 7023446108 [MCR 1−, E. Coli].
The mark [16] stands for this setting: Escherichia coli, 7033607097 [MCR 1−, E. Coli].
[17] abbreviates: Escherichia coli, 7103531927 [MCR 1+, E. Coli, KPC+].
The mark [18] stands for this setting: Escherichia coli, 7113636863 [MCR 1+, E. Coli, NDM-1].

In brackets after ≈: the same amount, converted by molar mass. Read-outs that look alike come from different tables or passages of the source. Where only a bound is given, the exact number is not on record here.

Consider `NCC[C@H](O)C(=O)N[C@@H]1C[C@H](N)[C@@H](O[C@H]2O[C@H](CN)[C@@H](O)[C@H](O)[C@H]2O)[C@H](O)[C@H]1O[C@H]1O[C@H](CO)[C@@H](O)[C@H](N)[C@H]1O` [Amikacin], for which the MIC in assay [1] (setting [7]) is 12.5 µg/mL (≈ 21.3 µM); in assay [1] (strain ACBA 1010, alone, read-out: MIC), 1.56 µg/mL (≈ 2.66 µM); in assay [1] (setting [8]), above 50 µg/mL; in assay [1] (setting [9]), 50 µg/mL (≈ 85.4 µM); in assay [2] (strain KLPN 8852) it was 12.5 µg/mL (≈ 21.3 µM); in assay [2] (strain KLPN 15588), above 50 µg/mL. Besides, the MIC in assay [2] (strain KLPN 24076) was 3.12 µg/mL (≈ 5.34 µM); in assay [2] (strain KLPN 27025), 3.12 µg/mL (≈ 5.34 µM); in assay [3] (strain ENT CLOACAE 6780) it was above 50 µg/mL; in assay [3] (strain ENT CLOACAE 21489), 0.78 µg/mL (≈ 1.33 µM); in assay [3] (strain ENT CLOACAE 30063), 25 µg/mL (≈ 42.7 µM); in assay [3] (strain ENT CLOACAE 44095) it was 25 µg/mL (≈ 42.7 µM).

For the compound `C[C@@H](O)[C@H]1C(=O)N2C(C(=O)O)=C(SCCN=CN)C[C@H]12` [Imipenem], the MIC in assay [1] is 12.5 µg/mL (≈ 41.8 µM); in assay [1] (setting [7]), 25 µg/mL (≈ 83.5 µM); in assay [1] (setting [8]) it was above 50 µg/mL; in assay [1] (setting [9]) it was above 50 µg/mL; in assay [2] (strain KLPN 8852) it was above 50 µg/mL; in assay [2] (strain KLPN 15588), above 50 µg/mL. Also, the MIC in assay [2] (strain KLPN 24076) is above 50 µg/mL; in assay [2] (strain KLPN 27025), above 50 µg/mL; with various pathogens (ACBA 1010 (CI)), 25 µg/mL; in the assay with various pathogens (ACBA ATCC 19606) it was 25 µg/mL; in the assay with various pathogens (ACBA DR 43357), above 50 µg/mL; in the assay with various pathogens (setting [10]), 0.0975 µg/mL. Also, the MIC with various pathogens (setting [11]) was 12.5 µg/mL; in the assay on various pathogens (setting [12]), below 0.0975 µg/mL; in the assay on various pathogens (setting [13]), below 0.0975 µg/mL; with various pathogens (setting [14]), 0.0975 µg/mL; in the assay on various pathogens (setting [15]), 0.0975 µg/mL; in the assay with various pathogens (setting [16]), 0.195 µg/mL. The MIC is 6.25 µg/mL in the assay with various pathogens (setting [17]); 12.5 µg/mL in the assay with various pathogens (setting [18]); above 50 µg/mL in the assay with various pathogens (KLPN CRE 15588); above 50 µg/mL in the assay with various pathogens (KLPN CRE 27025); 3.12 µg/mL in the assay on various pathogens (PAE DM 4150); 0.78 µg/mL in the assay on various pathogens (PAE DM 23155). The MIC in the assay on various pathogens (PAE DM 23257) was 0.78 µg/mL; with various pathogens (PAE DM 23376) it was 1.56 µg/mL; in the assay on various pathogens (PAE DR 4877) it was 1.56 µg/mL; in the assay with various pathogens (PAE DR 5790), 6.25 µg/mL; with various pathogens (PAE DU 14476), above 25 µg/mL; in assay [3] (strain ENT CLOACAE 6780) it was above 50 µg/mL. Besides, the MIC in assay [3] (strain ENT CLOACAE 21489), in assay [3] (strain ENT CLOACAE 30063) and in assay [3] (strain ENT CLOACAE 44095) was above 50 µg/mL throughout.

Consider `C[C@@H](O)[C@H]1C(=O)N2C(C(=O)O)=C(S[C@@H]3CN[C@H](C(=O)N(C)C)C3)[C@H](C)[C@H]12` [meropenem], for which, in assay [4], the “reduction in bacterial burden” value is reported as 2 log. Moreover, the MIC in the assay with various pathogens (ACBA 1010 (CI)) is 1.56 µg/mL; in the assay on various pathogens (setting [10]), below 0.0975 µg/mL; with various pathogens (setting [11]), above 50 µg/mL; with various pathogens (setting [12]), below 0.0975 µg/mL; with various pathogens (setting [13]), below 0.0975 µg/mL; with various pathogens (setting [14]), below 0.0975 µg/mL. Moreover, the MIC is below 0.0975 µg/mL with various pathogens (setting [15]); below 0.0975 µg/mL in the assay on various pathogens (setting [16]); 25 µg/mL in the assay on various pathogens (setting [17]); 50 µg/mL in the assay on various pathogens (setting [18]); above 25 µg/mL in the assay on various pathogens (Escherichia coli, E. Coli CRE 11804); below 0.195 µg/mL with various pathogens (Escherichia coli, E. Coli CRE 17232, ⅙ MHB). The MIC was 1.56 µg/mL in the assay on various pathogens (Escherichia coli, E. Coli CRE 17528); above 25 µg/mL with various pathogens (KLPN CRE 7955); above 50 µg/mL in the assay on various pathogens (KLPN CRE 16260); above 50 µg/mL in the assay with various pathogens (KLPN CRE 27025); 0.39 µg/mL in the assay with various pathogens (KLPN CRE 55301); 1.56 µg/mL in the assay with various pathogens (PAE DM 4150). For the same compound, the MIC is 0.195 µg/mL with various pathogens (PAE DM 23155); 0.78 µg/mL with various pathogens (PAE DM 23257); 0.39 µg/mL with various pathogens (PAE DM 23376); 1.56 µg/mL with various pathogens (PAE DR 4877); 6.25 µg/mL in the assay on various pathogens (PAE DR 5790); above 25 µg/mL with various pathogens (PAE DU 14476).

In the case of Polymyxin B, the “MIC (antibiotic alone)” value in assay [5] (strain PAE 4877) worked out at 1.56; in assay [5] (strain PAE 5790), 1.56; in assay [5] (strain PAE 14476), 1.56; in assay [6] (strain EC 17232) it was 0.195; in assay [6] (strain EC 17528) it was 0.78; in assay [6] (strain EC 19963), 1.56.
